Assay results published in patent US8883745B2, “C—glycolipids with enhanced Th-1 profile” (New York University, priority 2006, dated 2014).

Columns and labels:
Type in all cases: in vivo
IL-12 [1] = assay: IL-12 levels in sera upon i.v. glycolipid administration to C57BL/6 mice (ELISA); design: IL-12 levels, test 1 / IL-12 levels, test 2 / IL-12 levels, average / IL-12 levels, Total: unit not given here
Method: (§1) Five- to six-week-old female C57BL/6 mice and BALB/c mice were purchased from Taconic. Each glycolipid was stored at 1 mg/ml in 100% DMSO. Mice were injected intravenously with 1 μg of each glyocolipid diluted in 200 μL sterile phosphate buffered saline (PBS). At indicated time points, sera were collected from each animal, and concentrations of IFN-γ, IL-4, and IL-12 in the sera were evaluated by enzyme-linked immunosorbent assay (ELISA). Serum concentrations of IFN-γ, IL-4, and IL-12 were evaluated using an ELISA kit (eBioscience, San Diego, Calif.). Briefly, 96 well flat-bottom ELISA plates (NUNC) were coated with capture antibody according to the manufacture's recommendation and incubated overnight at 4° C. The plates were washed with PBS+0.05% Tween 20 (PBS-T), then incubated with manufacturer provided blocking solution for 1 hr at room temperature to block non-specific binding sites. After washing with PBS-T, sera diluted 1:10 was added to the wells and incubated for 2 hrs at room temperature. Plates were then incubated at room temperature for 1 hr with biotintylated detection antibody, washed, incubated with avidin conjugated to horse radish peroxidase (HRP) for 30 min at room temperature, washed, and finally incubated with tetramethylbenzidine substrate solution in the dark for 10 minutes at room temperature. The antibodies, avidin-HRP, and substrate solution were all diluted according to the manufacture's recommendation. Reactions were stopped with 2.0N sulfuric acid and the cytokine concentration in each well was determined by comparing the absorbance at 450 nm in each well to known standards. The levels of Th1- and Th2-type cytokines were determined in two different genetic backgrounds, i.e., in C57BL/6 mice and BALB/c mice. The following compounds were administered: A=compound (A-1 trans-conformer), B=compound (A-2), C=compound (A-3), D=compound (A-4), E=compound (A-5), Z=control (PBS alone), CRONY=α-C-GalCer, KRN=α-GalCer, GCK109 (A-1 trans-conformer), GCK151 (A-1 cis-conformer), GCK152 (A-7). The levels of cytokines were measured at 0, 2, 6, 12, 24, 48, and 72 hours after the compound administration. The levels of Th1-type cytokines IFN-γ and IL-12 are summarized in FIGS. 2A-C and 3A-C, respectively. Table 7 provides IFN-γ/IL-4 and IL-12/IL-4 ratios for various compounds, which can be used as indicators of their ability to selectively stimulate Th1-type immune responses.

IL-4 = IL-4 levels in sera upon i.v. glycolipid administration to BALB/c mice (ELISA); design: unit not given here
Method: as §1

IL-12 [2] = assay: IL-12 levels in sera upon i.v. glycolipid administration to BALB/c mice (ELISA); design: IL-12 levels, test 1 / IL-12 levels, test 2 / IL-12 levels, average / IL-12 levels, Total: unit not given here
Method: as §1

IFN-γ = IFN-γ levels in sera upon i.v. glycolipid administration to BALB/c mice (ELISA); design: IFN-γ levels, test 1 / IFN-γ levels, test 2 / IFN-γ levels, average / IFN-γ levels, Total: unit not given here; settings: BALB/c
Method: as §1

[3] = ratio calculated from Tables 1-6

CCCCCCCCCCCCCCCCCCCCCCCCCC(=O)N[C@@H](CC[C@H]1O[C@H](CO)[C@H](O)[C@H](O)[C@H]1O)[C@H](O)[C@H](O)CCCCCCCCCCCCCC [CRONY, reference compound]
IL-12/IL-4 (B6) (IL-12 [1]; C57BL/6, ratio calculated from Tables 1-6): 2 | IL-12 levels, average (IL-12 [1]; C57BL/6, serum, hour 0): 5 | IL-12 levels, test 1 (IL-12 [1]; C57BL/6, serum, hour 0): 5 | IL-12 levels, test 2 (IL-12 [1]; C57BL/6, serum, hour 0): 5 | IL-12 levels, average (IL-12 [1]; C57BL/6, serum, hour 2): 107 | IL-12 levels, test 1 (IL-12 [1]; C57BL/6, serum, hour 2): 0 | IL-12 levels, test 2 (IL-12 [1]; C57BL/6, serum, hour 2): 214 | IL-12 levels, average (IL-12 [1]; C57BL/6, serum, hour 6): 472.5 | IL-12 levels, test 1 (IL-12 [1]; C57BL/6, serum, hour 6): 560 | IL-12 levels, test 2 (IL-12 [1]; C57BL/6, serum, hour 6): 385 | IL-12 levels, average (IL-12 [1]; C57BL/6, serum, hour 12): 675.5 | IL-12 levels, test 1 (IL-12 [1]; C57BL/6, serum, hour 12): 630 | IL-12 levels, test 2 (IL-12 [1]; C57BL/6, serum, hour 12): 721 | IL-12 levels, average (IL-12 [1]; C57BL/6, serum, hour 24): 117.5 | IL-12 levels, test 1 (IL-12 [1]; C57BL/6, serum, hour 24): 235 | IL-12 levels, test 2 (IL-12 [1]; C57BL/6, serum, hour 24): 0 | IL-12 levels, average (IL-12 [1]; C57BL/6, serum, hour 48): 0 | IL-12 levels, test 1 (IL-12 [1]; C57BL/6, serum, hour 48): 0 | IL-12 levels, test 2 (IL-12 [1]; C57BL/6, serum, hour 48): 0 | IL-12 levels, average (IL-12 [1]; C57BL/6, serum, hour 72): 0 | IL-12 levels, test 1 (IL-12 [1]; C57BL/6, serum, hour 72): 0 | IL-12 levels, test 2 (IL-12 [1]; C57BL/6, serum, hour 72): 0 | IL-12 levels, Total (IL-12 [1]; C57BL/6, serum, total over hours 0-72): 1379 | IL-4 level, average (IL-4; hour 0): 27 | IL-4 level, test 1 (IL-4; hour 0): 27 | IL-4 level, test 2 (IL-4; hour 0): 27 | IL-4 level, average (IL-4; hour 2): 262.5 | IL-4 level, test 1 (IL-4; hour 2): 264 | IL-4 level, test 2 (IL-4; hour 2): 261 | IL-4 level, average (IL-4; hour 6): 87 | IL-4 level, test 1 (IL-4; hour 6): 80 | IL-4 level, test 2 (IL-4; hour 6): 94 | IL-4 level, average (IL-4; hour 12): 49 | IL-4 level, test 1 (IL-4; hour 12): 45 | IL-4 level, test 2 (IL-4; hour 12): 53 | IL-4 level, average (IL-4; hour 24): 47.5 | IL-4 level, test 1 (IL-4; hour 24): 49 | IL-4 level, test 2 (IL-4; hour 24): 46 | IL-4 level, average (IL-4; hour 48): 46.5 | IL-4 level, test 1 (IL-4; hour 48): 45 | IL-4 level, test 2 (IL-4; hour 48): 48 | IL-4 level, average (IL-4; hour 72): 67 | IL-4 level, test 1 (IL-4; hour 72): 67 | IL-4 level, test 2 (IL-4; hour 72): 67 | IL-4 level, Total (IL-4; total over hours 0-72): 588 | IL-12/IL-4 (BALB/c) (IL-12 [2]; [3]): 7 | IL-12 levels, average (IL-12 [2]; serum, hour 0): 5 | IL-12 levels, test 1 (IL-12 [2]; serum, hour 0): 5 | IL-12 levels, test 2 (IL-12 [2]; serum, hour 0): 5 | IL-12 levels, average (IL-12 [2]; serum, hour 2): 66 | IL-12 levels, test 1 (IL-12 [2]; serum, hour 2): 7 | IL-12 levels, test 2 (IL-12 [2]; serum, hour 2): 125 | IL-12 levels, average (IL-12 [2]; serum, hour 6): 1525 | IL-12 levels, test 1 (IL-12 [2]; serum, hour 6): 1556 | IL-12 levels, test 2 (IL-12 [2]; serum, hour 6): 1494 | IL-12 levels, average (IL-12 [2]; serum, hour 12): 1888.5 | IL-12 levels, test 1 (IL-12 [2]; serum, hour 12): 1717 | IL-12 levels, test 2 (IL-12 [2]; serum, hour 12): 2060 | IL-12 levels, average (IL-12 [2]; serum, hour 24): 210 | IL-12 levels, test 1 (IL-12 [2]; serum, hour 24): 338 | IL-12 levels, test 2 (IL-12 [2]; serum, hour 24): 82 | IL-12 levels, average (IL-12 [2]; serum, hour 48): 238 | IL-12 levels, test 1 (IL-12 [2]; serum, hour 48): 328 | IL-12 levels, test 2 (IL-12 [2]; serum, hour 48): 148 | IL-12 levels, average (IL-12 [2]; serum, hour 72): 91.5 | IL-12 levels, test 1 (IL-12 [2]; serum, hour 72): 9 | IL-12 levels, test 2 (IL-12 [2]; serum, hour 72): 174 | IL-12 levels, Total (IL-12 [2]; serum, total over hours 0-72): 4025 | IFN-γ/IL-4 (BALB/c) (IFN-γ; [3]): 34 | IFN-γ levels, average (IFN-γ; serum, hour 0): 27 | IFN-γ levels, test 1 (IFN-γ; serum, hour 0): 27 | IFN-γ levels, test 2 (IFN-γ; serum, hour 0): 27 | IFN-γ levels, average (IFN-γ; serum, hour 2): 150 | IFN-γ levels, test 1 (IFN-γ; serum, hour 2): 122 | IFN-γ levels, test 2 (IFN-γ; serum, hour 2): 178 | IFN-γ levels, average (IFN-γ; serum, hour 6): 3075.5 | IFN-γ levels, test 1 (IFN-γ; serum, hour 6): 3114 | IFN-γ levels, test 2 (IFN-γ; serum, hour 6): 3037 | IFN-γ levels, average (IFN-γ; serum, hour 12): 5611 | IFN-γ levels, test 1 (IFN-γ; serum, hour 12): 6314 | IFN-γ levels, test 2 (IFN-γ; serum, hour 12): 4908 | IFN-γ levels, average (IFN-γ; serum, hour 24): 10680 | IFN-γ levels, test 1 (IFN-γ; serum, hour 24): 11900 | IFN-γ levels, test 2 (IFN-γ; serum, hour 24): 9460 | IFN-γ levels, average (IFN-γ; serum, hour 48): 334 | IFN-γ levels, test 1 (IFN-γ; serum, hour 48): 320 | IFN-γ levels, test 2 (IFN-γ; serum, hour 48): 348 | IFN-γ levels, average (IFN-γ; serum, hour 72): 59.5 | IFN-γ levels, test 1 (IFN-γ; serum, hour 72): 50 | IFN-γ levels, test 2 (IFN-γ; serum, hour 72): 69 | IFN-γ levels, Total (IFN-γ; serum, total over hours 0-72): 19938
